Converted amounts (≈) assume the structure as drawn. Where only a bound is given, the exact number is not on record here.

The conditions of the data set: buffer; pH 7.4; 200.0 µM.
By kinetic solubility is commonly meant the concentration staying in solution when a stock, usually in DMSO, is diluted into the medium. `COc1ccc(C(=O)NCCCNC(=O)c2cccnc2)cc1OC` displayed a solubility (kinetic) of 0.0445 mg/mL (≈ 130 µM). Consider `O=C(NNC(=O)C1CCN(c2ncccn2)CC1)c1ccncc1`, for which the kinetic solubility was over 0.049 mg/mL.

Take `COc1ccc(NC(=S)Nc2ccc(F)cc2)cc1`: the solubility (kinetic) came out at 0.0277 mg/mL (≈ 100 µM). The compound `O=C(NCC(=O)N1CCN(Cc2ccccc2)CC1)c1cccs1` came in with a solubility (kinetic) of over 0.0515 mg/mL. `C=C(C)Cn1cnc2c(oc3nc4c(cc32)CCCC4)c1=O` showed a kinetic solubility of 0.0025 mg/mL (≈ 8.46 µM). For the compound `S=C1NCN(Cc2ccco2)CN1`, the kinetic solubility was over 0.0296 mg/mL. Consider `Cc1cccnc1NC(=O)Nc1ccccc1`, for which the solubility (kinetic) was 0.0041 mg/mL (≈ 18 µM). In the case of `CCc1noc(C)c1C(=O)OC(C)C(=O)Nc1ccc2c(c1)OCO2` (configuration not stated) it was 0.0144 mg/mL (≈ 41.6 µM); in that of `COC(=O)Nc1nc(-c2ccc(F)cc2)c(C)s1`, 0.0022 mg/mL (≈ 8.26 µM). In the case of `CC1CN(C(=O)COC(=O)c2ccc3ncsc3c2)CC(C)O1` (configuration not stated) it was over 0.0502 mg/mL. For `O=C(CSc1nncs1)Nc1ccc2c(c1)OCO2` the value was over 0.0443 mg/mL. Consider `Cc1ccc[n+](Cc2ccc([N+](=O)[O-])cc2)c1.[Br-]`, for which the solubility (kinetic) was over 0.0464 mg/mL.

Regarding `O=C(NC1CCCc2ccccc21)c1c(F)cccc1Cl` (configuration not stated), the kinetic solubility was 0.0083 mg/mL (≈ 27.3 µM). In the case of `C/C(=N\O)c1cccc(Br)c1` it was 0.0181 mg/mL (≈ 84.6 µM); in that of `COC1c2ccccc2C(=O)N1Cc1ccc(F)cc1` (configuration not stated), 0.0374 mg/mL (≈ 138 µM); in that of `COc1ccc(NC(=O)CN(C)C(=O)Cc2ccc3c(c2)CCC3)cc1`, 0.0122 mg/mL (≈ 34.6 µM). In the case of `Fc1ccc(N2CCN(C3CCC(c4ccccc4)CC3)CC2)cc1` (configuration not stated) it was 0.0011 mg/mL (≈ 3.25 µM).

`COc1ccc(NC(=O)c2cc3ccccc3o2)cn1`: the kinetic solubility stood at 0.0038 mg/mL (≈ 14.2 µM). For `Cc1ccc(-c2nc3ccccc3nc2Cl)cc1` the value was under 0.0003 mg/mL; for `CC(C(=O)O/N=C(\N)c1cccnc1)c1ccc([N+](=O)[O-])cc1` (configuration not stated), 0.0412 mg/mL (≈ 131 µM); for `CC(=O)c1cccc(Oc2ncccn2)c1`, over 0.0321 mg/mL.

Regarding `CCc1ccccc1Nc1nc(-c2cccnc2)cs1`, the solubility (kinetic) came to 0.0036 mg/mL (≈ 12.8 µM).

Compound `COCCSc1ccccc1C(=O)NCc1cccnc1` displayed a kinetic solubility of over 0.0454 mg/mL.

`CC(=O)N/C(=N/c1nc(C)cc(C)n1)Nc1ccc(C)cc1Cl` registered a solubility (kinetic) of 0.0002 mg/mL (≈ 0.603 µM). For `NC(=O)c1cccnc1Oc1ccc(Cl)cc1` the value was over 0.0373 mg/mL. `COc1ccccc1CNC(=O)C1(C)Oc2cccnc2NC1=O` (configuration not stated): the solubility (kinetic) is over 0.0491 mg/mL.

Regarding `CC1(C)N=c2ccc([N+](=O)[O-])c(N)c2=[N+]1[O-]`, the solubility (kinetic) turned out to be 0.03 mg/mL (≈ 135 µM). In turn, `O=C(CCCCCN1C(=O)c2ccccc2C1=O)Nc1cccc(O)c1` yielded a kinetic solubility of 0.0384 mg/mL (≈ 109 µM).

For the compound `Cc1ccc(OCC(=O)NC2CCSc3ccccc32)cc1` (configuration not stated), the solubility (kinetic) came to 0.0118 mg/mL (≈ 37.6 µM). For `Cc1ccc(NC(=O)CCc2ccccc2)cc1S(=O)(=O)N1CCOCC1` the value was 0.0567 mg/mL (≈ 146 µM); for `O=[N+]([O-])c1cccnc1Sc1ccc(Br)cc1`, 0.0017 mg/mL (≈ 5.46 µM); for `CCOc1ccc(NC(=O)c2ccc3[nH]c(=O)c(=O)[nH]c3c2)cc1`, 0.0048 mg/mL (≈ 14.8 µM). In the case of `COc1ccc(CNC(=O)COC(=O)C(CCSC)N2C(=O)c3ccccc3C2=O)cc1` (configuration not stated) it was over 0.0685 mg/mL.

On to `CCN(CC)CCCNc1oc(/C=C/c2ccccc2)nc1C#N`, for which the solubility (kinetic) was over 0.0487 mg/mL. For the compound `CN1CCC2(CC1)N=C(c1ccc(F)cc1)C(=S)N2`, the solubility (kinetic) came out at 0.0398 mg/mL (≈ 143 µM).

In turn, `Cc1cc(C(=O)OCC(=O)Nc2ccccc2Br)c(C)o1` returned a solubility (kinetic) of 0.0044 mg/mL (≈ 12.5 µM). For the compound `CCOc1ccc(CN(C)C(=O)c2cc3ccccc3o2)cc1OC`, the solubility (kinetic) is over 0.0509 mg/mL.

The compound `Cc1cccc(C)c1NC(=O)Cn1c(=O)c(N2CCCCC2)c(N)n(C)c1=O` returned a kinetic solubility of over 0.0578 mg/mL. For `CC(C)NCC(O)COc1cccc2[nH]ccc12` (configuration not stated), the solubility (kinetic) was over 0.0372 mg/mL. In the case of `Cc1[nH]c(=S)c(C#N)c(C)c1Cc1ccccc1` it was 0.0086 mg/mL (≈ 33.8 µM). In the case of `CCC(=O)c1cn(CC(=O)Nc2ccccc2Cl)c2ccccc12` it was 0.0008 mg/mL (≈ 2.35 µM).

As for `O=C(Cc1ccc(Cl)cc1)Nc1ncccn1`, the kinetic solubility was over 0.0372 mg/mL. The compound `CCc1ccc(N2C(=O)C(Cl)=C(N3CCCCCC3)C2=O)cc1` came in with a kinetic solubility of 0.0017 mg/mL (≈ 5.11 µM). Turning to `CCOc1cc(/C=N/OC(C)=O)ccc1OCc1ccccc1`, the kinetic solubility was 0.0272 mg/mL (≈ 86.8 µM).

Regarding `COC(=O)c1cn(C(=O)c2ccc(OC)c(OC)c2)c2ccccc12`, the solubility (kinetic) is 0.0012 mg/mL (≈ 3.54 µM). In the case of `CCCCn1c(SCC(=O)N2CCOCC2)nc2ccccc2c1=O` it was over 0.0542 mg/mL.

With `COc1ccc(NC(=O)C2C3C=CC(O3)C2C(=O)O)cc1` (configuration not stated), the solubility (kinetic) was over 0.0434 mg/mL. For `CC1(C)CC(=O)C=C(Nc2cccc(F)c2)C1` the value was over 0.035 mg/mL; for `CCCCN(C1CCS(=O)(=O)C1)S(=O)(=O)c1ccc(C(C)C)cc1` (configuration not stated), 0.0019 mg/mL (≈ 5.09 µM).

In turn, `O=C(Nc1ccccc1F)c1ccc(CN2CCN(c3ccccc3)CC2)cc1` returned a kinetic solubility of 0.0041 mg/mL (≈ 10.5 µM). For `CC(=O)c1cn(CC(=O)NCCc2c[nH]c3ccccc23)c2ccccc12` the value was 0.0026 mg/mL (≈ 7.23 µM). For `O=C(c1c[nH]c2ccccc12)N1CCOCC1` the value was 0.0263 mg/mL (≈ 114 µM).

The values are drawn from PubChem BioAssay AID1996.
